Test system: A152T neuronal proteome
Assay: TMT mass spectrometry global proteomics in A152T neurons
Type: cell-based, human
Details: 1 μM, 4 hr, >8000 proteins quantified
Procedure: A152T neurons at 6 weeks of differentiation were treated with DMSO vehicle, 1 µM of degrader QC-01–175 or 1 µM negative control QC-03–075 in biological triplicates for 4 hr, or pre-treated for 30 min with 10 µM MLN4924 followed by 1 µM QC-01–175 addition for 3.5 hr, in biological duplicates. Neuronal cells were washed in PBS (Corning VWR, Radnor, PA) and collected at 3000 g centrifugation. […] The mixture was vortexed and centrifuged to separate the chloroform phase from the aqueous phase. The precipitated protein was washed with three volumes of methanol, centrifuged and the resulting washed precipitated protein was allowed to air dry. Precipitated protein was resuspended in 4 M Urea, 50 mM HEPES pH 7.4, followed by dilution to 1 M urea with the addition of 200 mM EPPS, pH 8. […] The sample channels were combined at a 1:1:1:1:1:1:1:1:1:1:1 ratio, desalted using C18 solid phase extraction cartridges (Waters, Milford, MA) and analyzed by LC-MS for channel ratio comparison. Samples were then combined using the adjusted volumes determined in the channel ratio analysis and dried down in a speed vacuum. […]
Proteome Discoverer 2.2 (ThermoFisher Scientific) was used for .RAW file processing and controlling peptide and protein level false discovery rates, assembling proteins from peptides, and protein quantification from peptides. […]

Row | SMILES | significant changes in protein abundance (off-targets)
1 | O=C(CCc1ccc2c(c1)[nH]c1ccncc12)NCCOCCOCCNc1cccc2c1C(=O)N(C1CCCNC1=O)C2=O (centres unmarked) [QC-03–075] | no effect on these proteins
2 | O=C(CCc1ccc2c(c1)[nH]c1ccncc12)NCCOCCOCCNc1cccc2c1C(=O)N(C1CCC(=O)NC1=O)C2=O (centres unmarked) [QC-01–175] | ZFP91, ZNF653 and ZNF827
